Tested on: embryogenic cell lines F1, F2-1, F2-2, F2-3 (previously cryopreserved)
Assay: Maturation of somatic embryos on media with different ammonium to nitrate molar ratios and carbon sources
Type: cell-based, Pinus sylvestris
Settings: ABA tested at 20, 35 y 60 μM in previous evaluation
Method: For maturation process is highly relevant the interaction between nitrogen and carbon source, and the type of the carbon source. […] High concentration of abscisic acid has to be added when starting maturation in order to acquire best quality embryos and avoiding precocious germination; high average of conifers protocols ABA concentration varying between 16 μM and 24 μM. However for Pinus genera ABA is required between 60 μM and 100 μM. […] In order to produce gymnosperm mature somatic embryos with normal germination, is required such embryos developing on medium supplemented with high concentration of desiccant compound.
Under the evaluation done to produce normal embryos, was utilized between 400 and 600 mg of embryogenic tissue per sample, such amount was dispersed on filter paper as no thin layer, with two washing only with liquid mineral medium and they were exposed only two weeks on medium supplemented with activated charcoal.

Compound: CC1=CC(=O)CC(C)(C)[C@@]1(O)/C=C/C(C)=C\C(=O)O [ABA, abscisic acid]
- Effect on maturation of the cell lines: non effect

— patent US20030113916A1, “Method for producing somatic embryos of scot pine (p sylvestris)” (priority 2000, published 2003)
